pEC50: −log10 of the molar value.
Molecular target: T1, sGC α1/β1 heterodimer (Homo sapiens, UniProt Q02108+Q02153)
T1 construct: expressed in transfected cells; host or cells: CHO-K1 (clone #7, CHO-K1/sGC)
T1 sequence (Q02108 1-690): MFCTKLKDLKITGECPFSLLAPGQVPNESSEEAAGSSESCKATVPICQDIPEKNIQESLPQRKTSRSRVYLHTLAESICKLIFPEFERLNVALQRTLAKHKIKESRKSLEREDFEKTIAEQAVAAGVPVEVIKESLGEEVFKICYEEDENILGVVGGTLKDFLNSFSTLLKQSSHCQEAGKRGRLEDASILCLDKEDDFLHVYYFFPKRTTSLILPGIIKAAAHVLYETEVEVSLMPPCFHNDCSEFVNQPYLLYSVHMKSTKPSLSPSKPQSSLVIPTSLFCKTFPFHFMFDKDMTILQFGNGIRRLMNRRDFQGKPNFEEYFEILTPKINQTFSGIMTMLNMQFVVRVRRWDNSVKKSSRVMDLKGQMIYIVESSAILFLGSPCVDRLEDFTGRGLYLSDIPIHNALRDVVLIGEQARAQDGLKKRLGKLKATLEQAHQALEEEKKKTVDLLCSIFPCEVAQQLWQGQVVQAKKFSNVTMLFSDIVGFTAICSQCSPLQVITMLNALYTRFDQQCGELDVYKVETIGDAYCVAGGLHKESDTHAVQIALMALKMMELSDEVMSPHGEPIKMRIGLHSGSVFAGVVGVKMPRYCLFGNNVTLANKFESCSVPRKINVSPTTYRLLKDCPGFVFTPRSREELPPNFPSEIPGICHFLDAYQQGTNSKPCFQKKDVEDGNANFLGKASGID
T1 sequence (Q02153 1-619): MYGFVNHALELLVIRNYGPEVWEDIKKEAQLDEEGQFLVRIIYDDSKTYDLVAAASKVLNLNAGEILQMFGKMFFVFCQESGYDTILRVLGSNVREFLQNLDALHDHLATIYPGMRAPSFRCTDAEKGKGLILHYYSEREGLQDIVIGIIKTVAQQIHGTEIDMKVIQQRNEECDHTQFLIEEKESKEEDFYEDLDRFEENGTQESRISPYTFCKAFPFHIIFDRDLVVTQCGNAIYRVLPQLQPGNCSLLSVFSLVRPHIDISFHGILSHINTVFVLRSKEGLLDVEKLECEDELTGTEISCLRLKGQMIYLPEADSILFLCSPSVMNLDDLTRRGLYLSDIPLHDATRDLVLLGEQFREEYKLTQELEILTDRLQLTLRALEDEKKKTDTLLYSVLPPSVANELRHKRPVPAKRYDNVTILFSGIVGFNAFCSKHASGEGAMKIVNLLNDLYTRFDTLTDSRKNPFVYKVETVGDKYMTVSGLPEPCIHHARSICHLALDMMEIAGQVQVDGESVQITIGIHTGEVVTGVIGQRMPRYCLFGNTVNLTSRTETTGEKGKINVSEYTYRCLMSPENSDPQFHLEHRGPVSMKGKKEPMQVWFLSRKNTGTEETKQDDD
Experiment: Cell-based sGC functional assay (CASA assay): cGMP generation in CHO-K1/sGC cells, HTRF detection
Details: for Emax: CHO-K1, percent activation relative to standard Compound A in CHO-K1/sGC cells, read-out: % Act.; for pEC50: inflection point (IP) of cGMP generation in CHO-K1/sGC cells, 4P fit, activity expressed as percentage of Compound A
How it was run: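 Stable CHO-K1/sGC cells in EBSS buffer with 5 mM MgCl2, 0.05% BSA and 0.5 mM IBMX were incubated with compound (2.5% DMSO final) ±1 μM DETA-NO for 1 hr at 37° C. cGMP was measured by HTRF. Activation is expressed as % of reference HDA Compound A maximum, with IP and max fold induction from a 4P fit.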

| Emax [%] | pEC50 | Structure (SMILES) |
| --- | --- | --- |
| 79 | 8.00 | CC1(c2ccc(Cl)cn2)C(=O)Nc2nc(-c3cn4ccnc4c(CC4CCC4)n3)nc(N)c21 (stereo not shown) [Example 116A, 4-amino-5-(5-chloropyridin-2-yl)-2-(8-(cyclobutylmethyl)imidazo [1,2-a]pyrazin-6-yl)-5-methyl-5H-pyrrolo[2,3-d]pyrimidin-6(7H)-one] |
| 103 | 7.48 | CC1(c2ccc(OC(F)F)cn2)C(=O)Nc2nc(-c3cn4ccnc4c(CC4CCC4)n3)nc(N)c21 (stereo not shown) [Example 117A, 4-amino-2-(8-(cyclobutylmethyl)imidazo [1,2-a]pyrazin-6-yl)-5-(5-(difluoromethoxy)pyridin-2-yl)-5-methyl-5H-pyrrolo[2,3-d]pyrimidin-6(7H)-one] |
| 121 | 6.79 | CC1(c2ccc(C(F)(F)F)cn2)C(=O)Nc2nc(-c3cn4ccnc4c(CC4CCC4)n3)nc(N)c21 (stereo not shown) [Example 119B, 4-amino-2-(8-(cyclobutylmethyl)imidazo [1,2-a]pyrazin-6-yl)-5-methyl-5-(5-(trifluoromethyl)pyridin-2-yl)-5H-pyrrolo[2,3-d]pyrimidin-6(7H)-one] |
| 112 | 7.51 | CC(C)(C)CCc1nc(-c2nc(N)c3c(n2)NC(=O)C3(C)c2ccc(Cl)cc2)cn2ccnc12 (stereo not shown) [Example 120A, 4-amino-5-(4-chlorophenyl)-2-(8-(3,3-dimethylbutyl)imidazo[1,2-a]pyrazin-6-yl)-5-methyl-5H-pyrrolo[2,3-d]pyrimidin-6(7H)-one] |
| 145 | 7.25 | CC(C)(C)CCc1nc(-c2nc(N)c3c(n2)NC(=O)C3(C)c2ccc(F)cc2)cn2ccnc12 (stereo not shown) [Example 121A, 4-amino-2-(8-(3,3-dimethylbutyl)imidazo[1,2-a]pyrazin-6-yl)-5-(4-fluorophenyl)-5-methyl-5H-pyrrolo[2,3-d]pyrimidin-6(7H)-one] |
| 119 | 7.04 | CC(C)(C)CCc1nc(-c2nc(N)c3c(n2)NC(=O)C3(C)c2ccc(F)cn2)cn2ccnc12 (stereo not shown) [Example 122B, 4-amino-2-(8-(3,3-dimethylbutyl)imidazo[1,2-a]pyrazin-6-yl)-5-(5-fluoropyridin-2-yl)-5-methyl-5H-pyrrolo[2,3-d]pyrimidin-6(7H)-one] |
| 105 | 7.21 | CC(C)(C)CCc1nc(-c2nc(N)c3c(n2)NC(=O)C3(C)c2ccc(Cl)cn2)cn2ccnc12 (stereo not shown) [Example 123A, 4-amino-5-(5-chloropyridin-2-yl)-2-(8-(3,3-dimethylbutyl)imidazo[1,2-a]pyrazin-6-yl)-5-methyl-5H-pyrrolo[2,3-d]pyrimidin-6(7H)-one] |
| 97 | 7.39 | CC(C)Cc1nc(-c2nc(N)c3c(n2)NC(=O)C3(C)c2ccc(Cl)cn2)cn2ccnc12 (stereo not shown) [Example 125A, 4-amino-5-(5-chloropyridin-2-yl)-2-(8-isobutylimidazo[1,2-a]pyrazin-6-yl)-5-methyl-5H-pyrrolo[2,3-d]pyrimidin-6(7H)-one] |
| 119 | 6.49 | CC(C)Cc1nc(-c2nc(N)c3c(n2)NC(=O)C3(C)c2ccc(OC(F)F)cn2)cn2ccnc12 (stereo not shown) [Example 130A, 4-amino-5-(5-(difluoromethoxy)pyridin-2-yl)-2-(8-isobutylimidazo[1,2-a]pyrazin-6-yl)-5-methyl-5H-pyrrolo[2,3-d]pyrimidin-6(7H)-one] |

More lines, now with the values behind:

| Structure (SMILES) | Emax [%] | pEC50 |
| --- | --- | --- |
| CC1(c2ccc(Cl)c(F)c2)C(=O)Nc2nc(-c3cn4ccnc4c(CC4CCC4)n3)nc(N)c21 (stereo not shown) [Example 113B, 4-amino-5-(4-chloro-3-fluorophenyl)-2-(8-(cyclobutylmethyl)imidazo [1,2-a]pyrazin-6-yl)-5-methyl-5H-pyrrolo[2,3-d]pyrimidin-6(7H)-one] | 138 | 8.30 |
| CC(C)Cc1nc(-c2nc(N)c3c(n2)NC(=O)C3(c2ccc(Cl)cn2)C2CC2)cn2ccnc12 (stereo not shown) [Example 126B, 4-amino-5-(5-chloropyridin-2-yl)-5-cyclopropyl-2-(8-isobutylimidazo[1,2-a]pyrazin-6-yl)-5H-pyrrolo[2,3-d]pyrimidin-6(7H)-one] | 160 | 6.62 |
| CC(C)Cc1nc(-c2nc(N)c3c(n2)NC(=O)C3(c2ccc(C(F)(F)F)cn2)C2CC2)cn2ccnc12 (stereo not shown) [Example 127A, 4-amino-5-cyclopropyl-2-(8-isobutylimidazo[1,2-a]pyrazin-6-yl)-5-(5-(trifluoromethyl)pyridin-2-yl)-5H-pyrrolo[2,3-d]pyrimidin-6(7H)-one] | 105 | 6.29 |
| CC(C)Cc1nc(-c2nc(N)c3c(n2)NC(=O)C3(C)c2ccc(C(F)(F)F)cc2)cn2ccnc12 (stereo not shown) [Example 128B, 4-amino-2-(8-isobutylimidazo[1,2-a]pyrazin-6-yl)-5-methyl-5-(4-(trifluoromethyl)phenyl)-5H-pyrrolo[2,3-d]pyrimidin-6(7H)-one] | 108 | 6.79 |
| CCCCc1nc(-c2nc(N)c3c(n2)NC(=O)C3(c2ccc(C(F)(F)F)cn2)C2CC2)cn2ccnc12 (stereo not shown) [Example 133A, 4-amino-2-(8-butylimidazo[1,2-a]pyrazin-6-yl)-5-cyclopropyl-5-(5-(trifluoromethyl)pyridin-2-yl)-5H-pyrrolo[2,3-d]pyrimidin-6(7H)-one] | 129 | 7.43 |
| CC1(c2cc(F)cc(F)c2)C(=O)Nc2nc(-c3cn4ccnc4cn3)nc(N)c21 (stereo not shown) [Example 142B, 4-amino-5-(3,5-difluorophenyl)-2-(imidazo[1,2-a]pyrazin-6-yl)-5-methyl-5H-pyrrolo[2,3-d]pyrimidin-6(7H)-one] | 166 | 6.18 |
| CC1(c2ccc(OC(F)(F)F)cc2)C(=O)Nc2nc(-c3cn4ccnc4cn3)nc(N)c21 (stereo not shown) [Example 145A, 4-amino-2-(imidazo[1,2-a]pyrazin-6-yl)-5-methyl-5-(4-(trifluoromethoxy)phenyl)-5H-pyrrolo[2,3-d]pyrimidin-6(7H)-one] | 96 | 6.41 |
| Nc1nc(-c2cn3ccnc3cn2)nc2c1C(c1ccc(Cl)cc1)(C1CC1)C(=O)N2 (stereo not shown) [Example 146B, 4-amino-5-(4-chlorophenyl)-5-cyclopropyl-2-(imidazo[1,2-a]pyrazin-6-yl)-5H-pyrrolo[2,3-d]pyrimidin-6(7H)-one] | 95 | 6.34 |
| CC1(c2ccc(F)cc2)C(=O)Nc2nc(-c3cn4cc(C(F)(F)F)nc4c(Cc4ccccc4F)n3)nc(N)c21 (stereo not shown) [Example 147A, 4-amino-2-(8-(2-fluorobenzyl)-2-(trifluoromethyl)imidazo[1,2-a]pyrazin-6-yl)-5-(4-fluorophenyl)-5-methyl-5H-pyrrolo[2,3-d]pyrimidin-6(7H)-one] | 120 | 7.92 |
| CC1(c2ccc(F)cc2)C(=O)Nc2nc(-c3cn4cc(C(F)(F)F)nc4c(Cc4cccc(F)c4F)n3)nc(N)c21 (stereo not shown) [Example 148A, 4-amino-2-(8-(2,3-difluorobenzyl)-2-(trifluoromethyl)imidazo[1,2-a]pyrazin-6-yl)-5-(4-fluorophenyl)-5-methyl-5H-pyrrolo[2,3-d]pyrimidin-6(7H)-one] | 148 | 7.62 |
| CC1(c2ccc(F)cc2)C(=O)Nc2nc(-c3cn4cc(C(F)(F)F)nc4c(Cc4cccc(F)c4)n3)nc(N)c21 (stereo not shown) [Example 149A, 4-amino-2-(8-(3-fluorobenzyl)-2-(trifluoromethyl)imidazo[1,2-a]pyrazin-6-yl)-5-(4-fluorophenyl)-5-methyl-5H-pyrrolo[2,3-d]pyrimidin-6(7H)-one] | 111 | 7.66 |
